target: human P2X7 receptor (Homo sapiens, UniProt Q99572, R270H/Y155H); assay: Evaluation of human P2X7 receptor inhibitory activity (Yo-Pro uptake, BzATP stimulation, FLIPR TETRA); format: cell-based; conditions: 1321N1 cells stably expressing human P2X7 receptor; BzATP stimulation, Yo-Pro uptake; read-out: IC50 (antagonistic activity for the human P2X7 receptor)
Outline: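 1321N1 cells stably expressing human P2X7 (T606C/G952A SNP variant), in HBSS buffer pH 7.4-7.5 with Yo-Pro, stimulated with BzATP; compound added 8 min after agonist. Fluorescence followed for 20 min on FLIPR; max-minus-min change gave % inhibition, IC50 by logistic fit.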

Row | Compound | IC50 [nM]
1 | Cc1ccc(-c2nnco2)cc1Nc1nc(=O)c(F)cn1Cc1cc(F)c(F)c(F)c1 [Compound I-1216] | 6
2 | Cc1c(Nc2nc(=O)cnn2Cc2cc(F)c(F)c(F)c2)ccc2[nH]ccc12 [Compound I-1263] | 3
3 | Cc1nc2cc(C)c(Nc3nc(=O)c(C)nn3Cc3cc(F)c(F)c(F)c3)cc2s1 [Compound I-1267] | 10

same assay, conditions: antagonistic activity for the human P2X7 receptor; read-out: IC50

Row | Compound | IC50 [nM]
4 | CCc1cc(F)c(OC)cc1Nc1nc(=O)c(F)cn1Cc1cc(F)c(F)c(F)c1 [Compound I-1211] | < 10
5 | Cc1cc(S(C)(=O)=O)cc(Nc2nc(=O)c(F)cn2Cc2cc(F)c(F)c(F)c2)c1C [Compound I-1212] | < 10
6 | Cc1c(F)cccc1Nc1nc(=O)c(F)cn1Cc1ccc(F)c(Cl)c1 [Compound I-1213] | < 10
7 | CCc1cc(OC)ccc1Nc1nc(=O)c(F)cn1Cc1cc(F)cc(F)c1 [Compound I-1214] | < 10
8 | CCOc1ccc(F)c(Nc2nc(=O)c(F)cn2Cc2cc(F)c(F)c(F)c2)c1 [Compound I-1215] | < 10
9 | CCOc1ccc(Cl)c(Nc2nc(=O)c(F)cn2Cc2cc(F)c(F)c(F)c2)c1 [Compound I-1217] | < 10
10 | CCc1ccc(F)c(Nc2nc(=O)c(F)cn2Cc2cc(F)c(F)c(F)c2)c1 [Compound I-1218] | < 10
11 | Cc1c(Cl)cccc1Nc1nc(=O)c(F)cn1Cc1cc(F)c(F)c(F)c1 [Compound I-1219] | < 10
12 | CCc1cc(OC)c(OC)cc1Nc1nc(=O)c(F)cn1Cc1cc(F)c(F)c(F)c1 [Compound I-1220] | < 10
13 | Cc1ccc(-c2cccn(C)c2=O)cc1Nc1nc(=O)c(F)cn1Cc1cc(F)c(F)c(F)c1 [Compound I-1221] | < 10
14 | C=C1C(c2cc(Nc3nc(=O)c(F)cn3Cc3cc(F)c(F)c(F)c3)c(C)cc2F)=CC=CN1C [Compound I-1222] | < 10
15 | CCOc1c(C)cccc1Nc1nc(=O)c(F)cn1Cc1cc(F)c(F)c(F)c1 [Compound I-1223] | < 10
16 | Cc1cc(Nc2nc(=O)c(F)cn2Cc2cc(F)cc(F)c2)c(Cl)cc1F [Compound I-1224] | < 10
17 | Cc1cc(Nc2nc(=O)c(F)cn2Cc2cc(F)c(F)c(F)c2)c(Cl)cc1F [Compound I-1225] | < 10
18 | CCc1ccc(C)c(Nc2nc(=O)c(F)cn2Cc2cc(F)c(F)c(F)c2)c1 [Compound I-1226] | < 10
19 | Cc1cc(Nc2nc(=O)c(F)cn2Cc2cc(F)c(F)c(F)c2)c(C)cc1F [Compound I-1227] | < 10
20 | CCc1ccc(Nc2nc(=O)c(F)cn2Cc2cc(F)cc(F)c2)c(C)c1 [Compound I-1228] | < 10
21 | COCCn1ccc2c(C)c(Nc3nc(=O)c(F)cn3Cc3cc(F)cc(F)c3)ccc21 [Compound I-1229] | < 10
22 | Cc1cc(C)c(OC(F)F)cc1Nc1nc(=O)c(F)cn1Cc1cc(F)c(F)c(F)c1 [Compound I-1230] | < 10
23 | Cc1ccc(CF)cc1Nc1nc(=O)c(F)cn1Cc1cc(F)c(F)c(F)c1 [Compound I-1231] | < 10
24 | COc1cc(C)c(C)c(Nc2nc(=O)c(F)cn2Cc2cc(F)cc(F)c2)c1 [Compound I-1233] | < 10
25 | Cc1cc(Nc2nc(=O)c(F)cn2Cc2cc(F)cc(F)c2)c(C)nc1OC(F)F [Compound I-1234] | < 10
26 | COc1cc(Nc2nc(=O)c(F)cn2Cc2cc(F)c(F)c(F)c2)c(C)nc1OC [Compound I-1235] | < 10
27 | Cc1cc(CO)ccc1Nc1nc(=O)c(F)cn1Cc1cc(F)c(F)c(F)c1 [Compound I-1236] | < 10
28 | Cc1cc(C(F)F)ccc1Nc1nc(=O)c(F)cn1Cc1cc(F)c(F)c(F)c1 [Compound I-1237] | < 10
29 | Cc1cc(C)c(Nc2nc(=O)c(F)cn2Cc2cc(F)c(F)c(F)c2)cc1F [Compound I-1238] | < 10
30 | COc1cc(Cl)c(Nc2nc(=O)c(F)cn2Cc2cc(F)c(F)c(F)c2)cc1F [Compound I-1239] | < 10
31 | Cc1ccc(CF)cc1Nc1nc(=O)c(F)cn1Cc1cc(F)cc(F)c1 [Compound I-1240] | < 10

Row | Compound | IC50 [nM]
32 | Cc1cc(N(C)C)ccc1Nc1nc(=O)c(F)cn1Cc1cc(F)cc(F)c1 [Compound I-1241] | < 10
33 | Cc1cc(N(C)C)ccc1Nc1nc(=O)c(F)cn1Cc1cc(F)c(F)c(F)c1 [Compound I-1242] | < 10
34 | COc1ccc(Nc2nc(=O)c(F)cn2Cc2cc(F)c(F)c(F)c2)c(OC)c1C [Compound I-1243] | < 10
35 | Cc1cc(F)c(C)c(Nc2nc(=O)c(F)cn2Cc2cc(F)c(F)c(F)c2)c1 [Compound I-1244] | < 10
36 | COc1ccc(Nc2nc(=O)c(F)cn2Cc2cc(F)c(F)c(F)c2)c(C)c1F [Compound I-1245] | < 10
37 | COc1ccc(C)c(Nc2nc(=O)c(CO)nn2Cc2cc(F)c(F)c(F)c2)c1 [Compound I-1246] | < 10
38 | COc1ccc(Nc2nc(=O)c(CO)nn2Cc2cc(F)c(F)c(F)c2)c(C)c1 [Compound I-1247] | < 10
39 | COc1cc(C)c(Nc2nc(=O)c(CF)nn2Cc2cc(F)c(F)c(F)c2)cc1OC [Compound I-1248] | 10 to 100
40 | COc1ccc(C)c(Nc2nc(=O)c(C(=O)O)nn2Cc2cc(F)c(F)c(F)c2)c1 [Compound I-1249] | 10 to 100
41 | COc1ccc(Nc2nc(=O)c(C(=O)O)nn2Cc2cc(F)c(F)c(F)c2)c(C)c1 [Compound I-1250] | 100 to 500
42 | COc1cc(C)c(Nc2nc(=O)c(C(=O)O)nn2Cc2cc(F)c(F)c(F)c2)cc1OC [Compound I-1251] | 10 to 100
43 | CCOC(=O)c1nn(Cc2cc(F)c(F)c(F)c2)c(Nc2cc(OC)c(OC)cc2C)nc1=O [Compound I-1252] | 10 to 100
44 | Cc1ccc(F)cc1Nc1nc(=O)c(CO)nn1Cc1cc(F)c(F)c(F)c1 [Compound I-1253] | 10 to 100
45 | Cc1ccc(CO)cc1Nc1nc(=O)c(C)nn1Cc1cc(F)c(F)c(F)c1 [Compound I-1254] | < 10
46 | Cc1ccc(CO)cc1Nc1nc(=O)cnn1Cc1cc(F)c(F)c(F)c1 [Compound I-1255] | < 10
47 | COc1cc(C)c(Nc2nc(=O)c(CO)nn2Cc2cc(F)c(F)c(F)c2)cc1OC [Compound I-1256] | 10 to 100
48 | COc1cc(F)c(Nc2nc(=O)c(C)nn2Cc2cc(F)c(F)c(F)c2)cc1OC [Compound I-1257] | 10 to 100
49 | COc1cc(F)c(Nc2nc(=O)cnn2Cc2cc(F)c(F)c(F)c2)cc1OC [Compound I-1258] | < 10
50 | COc1ccc(Nc2nc(=O)c(C)nn2Cc2cc(F)c(F)c(F)c2)c(C)n1 [Compound I-1259] | 10 to 100
51 | Cc1nc2cc(C)c(Nc3nc(=O)c(C)nn3Cc3cc(F)cc(F)c3)cc2s1 [Compound I-1260] | 10 to 100
52 | Cc1nn(Cc2cc(F)c(F)c(F)c2)c(Nc2ccc3[nH]ccc3c2C)nc1=O [Compound I-1262] | < 10
53 | COc1cc(C)c(Nc2nc(=O)c(Cl)nn2Cc2cc(F)c(F)c(F)c2)cc1OC [Compound I-1264] | < 10
54 | COc1ccc(Nc2nc(=O)c(Cl)nn2Cc2cc(F)c(F)c(F)c2)c(C)c1 [Compound I-1265] | 10 to 100
55 | COc1cc(C)c(Nc2nc(=O)c(C)nn2Cc2cc(F)c(F)c(F)c2)cc1OC [Compound I-1266] | 10 to 100
56 | COc1ccc(Nc2nc(=O)cnn2Cc2ccc(Cl)c(F)c2)c(C)c1 [Compound I-1268] | 10 to 100
57 | COc1ccc(Nc2nc(=O)cnn2Cc2cc(F)cc(Cl)c2)c(C)c1 [Compound I-1269] | 10 to 100
58 | COc1ccc(Nc2nc(=O)cnn2Cc2ccc(F)c(Cl)c2)c(C)c1 [Compound I-1270] | < 10

— patent US10774051B2, “6-membered heterocyclic derivatives and pharmaceutical composition comprising the same” (Shionogi & Co., Ltd., priority 2015, dated 2020)
